# According to US20160177259A1, “[…]” (Evonik Degussa GmbH, priority 2014, published 2016):
# Tested on: Clostridium ljungdahlii
# Test: Formation of acetic acid and ethanol from synthesis gas in CGF1 mineral medium with refeeding of cysteine (Example 3)
# Type: cell-based
# Experimental: For the biotransformation of hydrogen and carbon dioxide to acetic acid and ethanol the homoacetogenic bacterium Clostridium ljungdahlii was cultivated on synthesis gas with refeeding of cysteine. All cultivation steps were carried out under anaerobic conditions in pressure-resistant glass bottles that can be closed airtight with a butyl rubber stopper.
# The chemolithoautotrophic cultivation was carried out in a 1 L pressure-resistant glass bottle at 37° C., 100 rpm and a ventilation rate of 3 L/h with a premixed gas with 67% H2, 33% CO2 in an open water bath shaker for 69 h till OD600nm>0.4. The gas was discharged into the medium through a sparger with a pore size of 10 μm, which was mounted in the center of the reactors. Then the cell suspension was centrifuged and the cell pellet was resuspended in fresh CGF1 mineral medium as disclosed below.
# For the production phase, as many washed cells from the preculture of C. ljungdahlii as necessary for an OD600nm of 0.2 were added to 100 ml mineral medium (CGF1 medium, pH 6.5, 1.4 g/L KOH, 2 g/L (NH4)2SO4, 1 g/L KH2PO4, 1 g/L K2HPO4, 10 mg/L FeSO4 X 7 H2O, 3.8 mg/L MnSO4 X 1 H2O, 246 mg/L MgSO4×7 H2O, aerated for 30 min with a premixed gas with 67% H2 and 33% CO2). […] The cultivation was carried out in 500 mL pressure-resistant glass bottles at 37° C., 150 rpm in an open water bath shaker for 163 h which were aerated to an overpressure of 0.8 bar with a premixed gas with 67% H2, 33% CO2 one time a day. The pH was held >5.0 by intermittent additions of a 140 g/L KOH solution. During the cultivation several 5 mL samples were taken to determinate OD600nm, pH and product formation. […] The determination of the product concentrations including the L-Cysteine concentration was performed by semiquantitative ^1H-NMR spectroscopy. As an internal quantification standard sodium trimethylsilylpropionate (T(M)SP) was used.
# [1] = culture A, 400 mg/L L-cysteine-hydrochloride at start, no refeed, 0 h
# [2] = culture A, 400 mg/L L-cysteine-hydrochloride at start, no refeed, 18.75 h
# [3] = culture A, 400 mg/L L-cysteine-hydrochloride at start, no refeed, 41.5 h
# [4] = culture A, 400 mg/L L-cysteine-hydrochloride at start, no refeed, 46.75 h
# [5] = culture A, 400 mg/L L-cysteine-hydrochloride at start, no refeed, 65.5 h
# [6] = culture A, 400 mg/L L-cysteine-hydrochloride at start, no refeed, 69.5 h
# [7] = culture A, 400 mg/L L-cysteine-hydrochloride at start, no refeed, 89.75 h
# [8] = culture A, 400 mg/L L-cysteine-hydrochloride at start, no refeed, 163.5 h
# [9] = culture B, 200 mg/L L-cysteine-hydrochloride at start, no refeed, 0 h
# [10] = culture B, 200 mg/L L-cysteine-hydrochloride at start, no refeed, 18.75 h
# [11] = culture B, 200 mg/L L-cysteine-hydrochloride at start, no refeed, 41.5 h
# [12] = culture B, 200 mg/L L-cysteine-hydrochloride at start, no refeed, 46.75 h
# [13] = culture B, 200 mg/L L-cysteine-hydrochloride at start, no refeed, 65.5 h
# [14] = culture B, 200 mg/L L-cysteine-hydrochloride at start, no refeed, 69.5 h
# [15] = culture B, 200 mg/L L-cysteine-hydrochloride at start, no refeed, 89.75 h
# [16] = culture B, 200 mg/L L-cysteine-hydrochloride at start, no refeed, 163.5 h
# [17] = culture C, 200 mg/L L-cysteine-hydrochloride at start, re-fed 200 mg/L after 18, 41, 65, 89 h, 0 h
# [18] = culture C, 200 mg/L L-cysteine-hydrochloride at start, re-fed 200 mg/L after 18, 41, 65, 89 h, 18.75 h
# [19] = culture C, 200 mg/L L-cysteine-hydrochloride at start, re-fed 200 mg/L after 18, 41, 65, 89 h, 41.5 h
# [20] = culture C, 200 mg/L L-cysteine-hydrochloride at start, re-fed 200 mg/L after 18, 41, 65, 89 h, 46.75 h
# [21] = culture C, 200 mg/L L-cysteine-hydrochloride at start, re-fed 200 mg/L after 18, 41, 65, 89 h, 65.5 h
# [22] = culture C, 200 mg/L L-cysteine-hydrochloride at start, re-fed 200 mg/L after 18, 41, 65, 89 h, 69.5 h
# [23] = culture C, 200 mg/L L-cysteine-hydrochloride at start, re-fed 200 mg/L after 18, 41, 65, 89 h, 89.75 h
# [24] = culture C, 200 mg/L L-cysteine-hydrochloride at start, re-fed 200 mg/L after 18, 41, 65, 89 h, 95.5 h
# [25] = culture C, 200 mg/L L-cysteine-hydrochloride at start, re-fed 200 mg/L after 18, 41, 65, 89 h, 163.5 h
smiles,measurement,setting,value
"Cl.N[C@@H](CS)C(=O)O [L-Cysteine-HCl, L-cysteine hydrochloride]",Acetate,[1],34.0 mg/L
same,Ethanol,[1],2.0 mg/L
same,OD (600 nm),[1],0.206
same,Acetate,[2],1400.0 mg/L
same,Ethanol,[2],60.0 mg/L
same,OD (600 nm),[2],0.232
same,Acetate,[3],2550 mg/L
same,Ethanol,[3],420 mg/L
same,OD (600 nm),[3],0.293
same,Acetate,[4],2700 mg/L
same,Ethanol,[4],480 mg/L
same,OD (600 nm),[4],0.281
same,Acetate,[5],3500 mg/L
same,Ethanol,[5],580 mg/L
same,OD (600 nm),[5],0.324
same,Acetate,[6],3700 mg/L
same,Ethanol,[6],650 mg/L
same,OD (600 nm),[6],0.366
same,Ethanol,[7],580.0 mg/L
same,OD (600 nm),[7],0.324
same,Acetate,[8],6100.0 mg/L
same,Ethanol,[8],670.0 mg/L
same,OD (600 nm),[8],0.339
same,Acetate,[9],35.0 mg/L
same,Ethanol,[9],1.9 mg/L
same,OD (600 nm),[9],0.197
same,Acetate,[10],1400.0 mg/L
same,Ethanol,[10],100.0 mg/L
same,OD (600 nm),[10],0.261
same,Acetate,[11],2150 mg/L
same,Ethanol,[11],580 mg/L
same,OD (600 nm),[11],0.279
same,Acetate,[12],2200 mg/L
same,Ethanol,[12],630 mg/L
same,OD (600 nm),[12],0.269
same,Acetate,[13],2200 mg/L
same,Ethanol,[13],600 mg/L
same,OD (600 nm),[13],0.271
same,Acetate,[14],2200 mg/L
same,Ethanol,[14],590 mg/L
same,OD (600 nm),[14],0.259
same,Acetate,[15],2350.0 mg/L
same,Ethanol,[15],560.0 mg/L
same,OD (600 nm),[15],0.241
same,Acetate,[16],2550.0 mg/L
same,Ethanol,[16],570.0 mg/L
same,OD (600 nm),[16],0.237
same,cell growth,culture C (re-fed) compared with cultures A and B,stronger cell growth
same,concentrations of acetate and ethanol,"culture C (re-fed) compared with cultures A and B, production phase",increased more
same,Acetate,[17],27.0 mg/L
same,Ethanol,[17],2.0 mg/L
same,OD (600 nm),[17],0.209
same,Acetate,[18],1400.0 mg/L
same,Ethanol,[18],85.0 mg/L
same,OD (600 nm),[18],0.245
same,Acetate,[19],3000 mg/L
same,Ethanol,[19],510 mg/L
same,OD (600 nm),[19],0.339
same,Acetate,[20],3250 mg/L
same,Ethanol,[20],580 mg/L
same,OD (600 nm),[20],0.335
same,Ethanol,[21],790 mg/L
same,OD (600 nm),[21],0.399
same,Ethanol,[22],860 mg/L
same,OD (600 nm),[22],0.392
same,Acetate,[23],5000.0 mg/L
same,Ethanol,[23],810.0 mg/L
same,OD (600 nm),[23],0.431
same,Acetate,[24],5600.0 mg/L
same,Ethanol,[24],880.0 mg/L
same,OD (600 nm),[24],0.434
same,Acetate,[25],7700.0 mg/L
same,Ethanol,[25],960.0 mg/L
same,OD (600 nm),[25],0.481
